{"source": "patent US20050152906A1", "about": "“Specific human antibodies” (priority 2003, published 2005)", "key": {"[1]": {"tested_on": "Y1-scFv binding to platelets", "assay": "Y1-scFv platelet binding assay, inhibition by synthetic GPIb peptides", "experimental": "Briefly, peptides were synthesized by solid phase methodology using an ABIMED AMS-422 multiple peptide synthesizer, and as required, tyrosine sulfate was incorporated using FMOC-Try sodium salt. Synthetic peptides were purified using a Lichrosorb RP-18 column. For the Y1-scFv platelet binding assay, a mixture of synthetic peptide (2.5, 25 or 200 μM) and Y1-scFv (10 μg) was incubated with […]. Following washing, platelets were incubated with R-phycoerythrin labeled-anti scFv, washed and analyzed by FACS."}, "[2]": {"target": "PSGL-1 (P-Selectin Glycoprotein Ligand-1) (human) (UniProt Q14242)", "sequence (Q14242 42-412)": "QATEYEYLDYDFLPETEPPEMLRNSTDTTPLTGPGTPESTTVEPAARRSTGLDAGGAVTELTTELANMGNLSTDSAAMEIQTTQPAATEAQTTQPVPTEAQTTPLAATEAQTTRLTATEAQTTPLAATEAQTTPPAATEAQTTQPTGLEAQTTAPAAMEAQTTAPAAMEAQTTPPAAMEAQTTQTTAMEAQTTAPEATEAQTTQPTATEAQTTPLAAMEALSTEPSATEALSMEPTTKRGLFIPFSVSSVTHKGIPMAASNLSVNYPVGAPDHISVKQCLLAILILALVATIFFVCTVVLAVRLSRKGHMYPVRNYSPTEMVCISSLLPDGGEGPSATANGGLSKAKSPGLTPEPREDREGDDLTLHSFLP", "assay": "cell-based or functional assay"}, "primary B-CLL cells [3]": {"tested_on": "primary B-CLL cells", "assay": "CDC against mononuclear cells from B-CLL patients", "type": "cell-based, human", "settings": "presence and absence of 25% of the patients' plasma", "experimental": "For CDC experiments, mononuclear cells from B-CLL patients were separated on FICOLL®. Cells were incubated with or without Y1-IgG or control antibodies for 24 hours in the presence or absence of the patient's plasma. Apoptotic cells were then stained with Annexin-PI and analyzed by FACS.\nMononuclear cells from B-CLL patients were incubated with Y1-IgG, Rituximab or Campath® in the presence and absence of 25% of the patients' plasma. […] Neither Rituximab nor Y1-IgG induced cytotoxicity via complement fixation."}, "primary AML cells": {"tested_on": "primary AML cells", "assay": "Semisolid clonogenic assay, primary AML patient samples", "type": "cell-based, human", "experimental": "3.2 Cytotoxicity of Y1-IgGM-DNR Derivative (FIG. 12-14): The specific cytotoxic effect of Y1-drug conjugates was assessed in semisolid (METHOCULT™; StemCell Technologies Inc., Vancouver BC, Canada) clonogenic assays. Cells (CD34+ stem cells from cord blood or primary AML patient samples) were incubated with free or conjugated drugs at concentrations of up to 10^−6M for 1 hour at 37° C. The cells were washed, seeded in METHOCULT™ and grown for 10-12 days, after which colonies were counted. Bovine (b)-IgG-M-DNR was used as a non-specific conjugate control."}, "Storage stability": {"assay": "Storage stability", "type": "physicochemical", "settings": "under argon at −20° C.", "experimental": "After reaction with acetic acid, the resulting free base was isolated as its solid acetate salt followed by lyophilization. M-DNR-Ac is stable for at least 12 months under argon at −20° C.\nThe methanolic solution was evaporated to dryness under reduced pressure at 25° C., resulting in a red oily residue, which was dissolved in dry methanol. To this solution, dry ether was added and the precipitated red solid isolated by centrifugation. […] (6-Maleimidocaproyl)hydrazone of Morphlinyldaunorubicin acetate is stable for at least 4 months under argon at −20° C."}, "primary B-CLL cells [4]": {"tested_on": "primary B-CLL cells", "assay": "Y1-IgG-mediated ADCC by PBMC effector cells against primary B-CLL cells", "type": "cell-based", "experimental": "For ADCC experiments, mononuclear effector and target cells were separated on FICOLL®. Target cells were then labeled with PKH26, which stably incorporates a fluorescent dye within the lipid regions of the cell membranes. Cells were then washed and incubated with effector cells at various Effector:Target (E:T) ratios, in the absence or presence of different concentrations of Y1-IgG or control antibodies for 24 hours. Dead cells were stained by TOPRO®(Molecular Probes, Inc., Eugene, Oreg.): and analyzed by FACS on gated target cells.\nTo determine if Y1-IgG mediates ADCC in primary B-CLL, B-CLL cells from different patients were co-incubated for 24 hours with PBMC effector cells at different effector/target cell ratios. […] Variation may be attributed to the effector cell samples obtained from different healthy donors, as well as to differences among the B-CLL samples."}, "[5]": {"settings": "substitution mutant peptides based on DLY^SDYYPE (FIG. 17B), concentration not given"}}, "note": "Ends that are not written are not given here. * marks the point of attachment. SO3H = O=S(=O)(O)*", "data": [{"molecule": "DLY^SNYYPE (DLY(SO3H)NYYPE) [Asp-277 replaced by Asn]", "values": [{"measurement": "inhibition of Y1-scFv binding to platelets", "setting": "[1]; [5]", "value": "substantially incapable of inhibiting"}]}, {"molecule": "DLYDY^SY^SPE (DLYDY(SO3H)Y(SO3H)PE) [sulfated at the second and third tyrosines]", "values": [{"measurement": "inhibition of Y1-scFv binding to platelets", "setting": "[1]; peptide 200 μM", "value": "no effect"}]}, {"molecule": "DAY^SDYYPE (DAY(SO3H)DYYPE) [Leu-275 replaced by Ala]", "values": [{"measurement": "inhibition of Y1-scFv binding to platelets", "setting": "[1]; [5]", "value": "inhibited Y1-scFv binding to platelets"}]}, {"molecule": "DLY^SDY^SY^SPE (DLY(SO3H)DY(SO3H)Y(SO3H)PE) [GPIb-based peptide comprising 3 sulfated tyrosines]", "values": [{"measurement": "inhibition of Y1-scFv binding to platelets", "setting": "[1]; peptide 25 μM", "value": "effectively inhibited"}]}, {"molecule": "DLEDYYPE [sulfated Tyr-276 replaced with Glu]", "values": [{"measurement": "inhibition of Y1-scFv binding to platelets", "setting": "[1]; [5]", "value": "no substantial inhibition"}]}, {"molecule": "DLY^SDY^SYPE (DLY(SO3H)DY(SO3H)YPE) [sulfated at the first and second tyrosines]", "values": [{"measurement": "inhibition of Y1-scFv binding to platelets", "setting": "[1]; peptide 25 μM", "value": "effectively inhibited"}]}, {"molecule": "DLY^SEYYPE (DLY(SO3H)EYYPE) [Asp-277 replaced by Glu]", "values": [{"measurement": "inhibition of Y1-scFv binding to platelets", "setting": "[1]; [5]", "value": "substantially incapable of inhibiting"}]}, {"molecule": "mouse anti-PSGL-1 antibody KPL1", "values": [{"measurement": "inhibition of ML2 cell rolling on rh-P-Selectin (1 µg/ml) at all shear forces", "setting": "[2]", "value": 100, "unit": "%"}]}, {"molecule": "Campath®: commercially available humanized antibody which binds CD52", "values": [{"measurement": "cytotoxicity via CDC", "setting": "primary B-CLL cells [3]", "value": "mediated cytotoxicity of primary B-CLL cells via CDC"}]}, {"molecule": "DLY^SDAYPE (DLY(SO3H)DAYPE) [substitution mutant peptide, amino acids 278 to 280]", "values": [{"measurement": "inhibition of Y1-scFv binding to platelets", "setting": "[1]; [5]", "value": "inhibited Y1-scFv binding to platelets"}]}, {"molecule": "DLY^SDYYPE (DLY(SO3H)DYYPE) [sulfated at the first tyrosine]", "values": [{"measurement": "inhibition of Y1-scFv binding to platelets", "setting": "[1]; peptide 25 μM", "value": "effectively inhibited"}]}, {"molecule": "DLYDYYPE [non-sulfated control peptide]", "values": [{"measurement": "inhibition of Y1-scFv binding to platelets", "setting": "[1]; peptide 200 μM", "value": "no effect"}]}, {"molecule": "DLY^SAYYPE (DLY(SO3H)AYYPE) [Asp-277 replaced by Ala]", "values": [{"measurement": "inhibition of Y1-scFv binding to platelets", "setting": "[1]; [5]", "value": "substantially incapable of inhibiting"}]}, {"molecule": "DLY^SDYYPA (DLY(SO3H)DYYPA) [substitution mutant peptide, amino acids 278 to 280]", "values": [{"measurement": "inhibition of Y1-scFv binding to platelets", "setting": "[1]; [5]", "value": "inhibited Y1-scFv binding to platelets"}]}, {"molecule": "DLYDYY^SPE (DLYDYYPE; not fully specified (residue 6)) [sulfated at the third tyrosine]", "values": [{"measurement": "inhibition of Y1-scFv binding to platelets", "setting": "[1]; peptide 200 μM", "value": "no effect"}]}, {"molecule": "COc1cccc2c1C(=O)c1c(O)c3c(c(O)c1C2=O)C[C@@](O)(C(C)=O)C[C@@H]3O[C@H]1C[C@H](N2CCOCC2)[C@H](O)[C@H](C)O1", "note": "[M-DNR, 3′-Deamino-3′-(4-morpholinyl)daunorubicin]", "values": [{"measurement": "colony formation relative to control, AML-M4 cells", "setting": "primary AML cells; 1 μM", "value": "did not give rise to colonies"}, {"measurement": "colony formation relative to control, AML-M5 cells", "setting": "primary AML cells; 1 μM", "value": "did not give rise to colonies"}, {"measurement": "viability of primary AML cells relative to the control", "setting": "primary AML cells; AML sample M7 megakaryocytic leukemia, 0.1 μM", "value": 80, "unit": "%"}]}, {"molecule": "CC(=O)O.COc1cccc2c1C(=O)c1c(O)c3c(c(O)c1C2=O)C[C@@](O)(C(C)=NNC(=O)CCCCCN1C(=O)C=CC1=O)C[C@@H]3O[C@H]1C[C@H](N2CCOCC2)[C@H](O)[C@H](C)O1", "note": "[(6-Maleimidocaproyl)hydrazone of Morphlinyldaunorubicin acetate]", "values": [{"measurement": "stable for", "setting": "Storage stability", "value": "at least 4 months"}]}, {"molecule": "DLY^SDYYAE (DLY(SO3H)DYYAE) [substitution mutant peptide, amino acids 278 to 280]", "values": [{"measurement": "inhibition of Y1-scFv binding to platelets", "setting": "[1]; [5]", "value": "inhibited Y1-scFv binding to platelets"}]}, {"molecule": "Rituximab: commercially available humanized antibody which binds CD20", "values": [{"measurement": "concentration at which saturation of receptor molecules on the target cells was achieved", "setting": "primary B-CLL cells [4]", "value": "not by the same concentration"}, {"measurement": "cytotoxicity via CDC", "setting": "primary B-CLL cells [3]", "value": "Neither"}]}, {"molecule": "CC(=O)O.COc1cccc2c1C(=O)c1c(O)c3c(c(O)c1C2=O)C[C@@](O)(C(C)=O)C[C@@H]3O[C@H]1C[C@H](N2CCOCC2)[C@H](O)[C@H](C)O1", "note": "[M-DNR-Ac, 3′-Deamino-3′-(4-morpholinyl)daunorubicin acetate]", "values": [{"measurement": "stable for", "setting": "Storage stability", "value": "at least 12 months"}]}, {"molecule": "DLY^SDFYPE (DLY(SO3H)DFYPE) [substitution mutant peptide, amino acids 278 to 280]", "values": [{"measurement": "inhibition of Y1-scFv binding to platelets", "setting": "[1]; [5]", "value": "inhibited Y1-scFv binding to platelets"}]}, {"molecule": "DLY^SDYY^SPE (DLY(SO3H)DYY(SO3H)PE) [sulfated at the first and third tyrosines]", "values": [{"measurement": "inhibition of Y1-scFv binding to platelets", "setting": "[1]; peptide 25 μM", "value": "effectively inhibited"}]}]}
